Structures are written as SMILES.

The source of these data is patent US6935334B2, “Enhancing therapeutic effectiveness of nitric oxide inhalation” (The General Hospital Corporation, priority 2000, dated 2005).

One series has as its system NOS2. Put plainly: Pulmonary cGMP levels after endotoxin challenge. As to conditions: wild-type mice 7 hours after endotoxin challenge; L-NIL 5 mg/kg intraperitoneally; data not shown. Type of series: in vivo, mouse.
Series [1] relates to hypoxic pulmonary vasoconstriction (HPV) in mice. Nature of the series: Redistribution of pulmonary blood flow (QLPA/QPA) after left mainstem bronchus occlusion (LMBO), murine HPV model. Type of series: in vivo, mouse. How it is done:
Group 3: endotoxin-treated+L-NIL. SV129/B6F1 wild-type mice (n=5) were injected intraperitoneally with 10 mg/kg E. coli 011B4 endotoxin dissolved in 0.2 mL saline. Three hours after the endotoxin challenge, mice were treated with L-NIL 5 mg/kg intraperitoneally. Studies were performed 22 hours after the endotoxin challenge. In additional SV129/B6F1 mice with (n=5) and without (n=4) a prior challenge of endotoxin (22 hours earlier), the acute response to an intravenous bolus of 5 mg/kg L-NIL administered during LMBO, was studied.
Group 4: prolonged exposure to 4 or 40 ppm NO. Saline-treated SV129 wild-type mice (n=5) and NOS2-deficient mice (n=5) breathed 40 ppm NO in air for 22 hours and were studied 1 hour after discontinuation of NO inhalation. SV129 wild-type mice (n=5) and NOS2-deficient mice (n=5) breathed 40 ppm NO in air for 22 hours after challenge with 10 mg/kg endotoxin intraperitoneally and were studied 1 hour after discontinuation of NO inhalation. Additional NOS2-deficient mice (n=4) breathed 4 ppm of NO in air for 22 hours after challenge with 10 mg/kg endotoxin intraperitoneally and were studied 1 hour after discontinuation of NO inhalation.
Experimental preparation. Mice were anesthetized by intraperitoneal injection of ketamine (0.1 mg/g body weight [bw]). Tracheostomy and arterial catheterization were performed as described previously (Steudel et al., 1997, Circ. Res. 81:34-41). A custom-made endotracheal tube (22G Angiocath; Becton Dickinson Healthcare Systems, Sandy, Utah, USA), combined with a 2 French Fogarty arterial embolization catheter (Baxter Healthcare Corp., Irvine, Calif., USA) was inserted into the trachea, with the balloon tip of the Fogarty catheter initially remaining in the trachea. Volume-controlled ventilation was initiated at a respiratory rate of 110-120 breaths per minute, at FiO2 1.0, a peak inspiratory pressure of 13 cm H2O, and a positive end-expiratory pressure level of 2-3 cm H2O. A right parasternal thoracotomy was performed, and a small-vessel ultrasonic flow probe (1RB; Transonic Instruments, Ithaca, N.Y.) was placed around the right pulmonary artery and fixed in position using a micromanipulator (X-tra Hand; TechniTool, Plymouth, Pa.). A 4-0 silk suture was positioned around the left main pulmonary artery to allow transient vascular occlusion. A pulmonary artery catheter (PE10) was inserted into the main pulmonary artery by direct puncture. In other experiments, a lower thoracic aortic flow probe was placed as reported previously (Steudel et al., supra).
Blood flow and pressure measurements. Mean systemic arterial pressure (PSA), mean pulmonary artery pressure (PPA), and in some studies PLA, were continuously monitored using biomedical amplifiers (Hewlett Packard 8805C, Palo Alto, Calif.; Siemens Sirecust 960, Danvers, Mass.). Mean lower thoracic aortic flow (QLTAF) and right pulmonary artery flow (QRPA) were measured with small vessel flow probes connected to a flowmeter (T106; Transonic Instruments). In some experiments, left ventricular end-diastolic pressure was measured with a 1.4 Fr. Millar catheter. The catheter was advanced through the right carotid artery into the left ventricle. […] All monitoring equipment was calibrated before each experiment.
Differential measurement of left and right pulmonary artery flow. To assess the contribution of QRPA and left pulmonary artery flow (QLPA) to total pulmonary artery flow (QPA), transient occlusion (90 seconds) of the left pulmonary artery (QLPA) was performed. QRPA during acute left pulmonary artery occlusion was considered to be QPA (i.e., cardiac output) and correlated closely (r2=0.88; y=0.95x+0.38; n=9) with QLTAF. QLPA was calculated as the difference between QRPA during left pulmonary artery occlusion (QPA) and QRPA with a patent left pulmonary artery (QLPA=QPA−QRPA). Absolute values of respective flows were recorded, and the fractional distribution of flow to the right and left lungs (QRPA/QPA and QLPA/QPA) was calculated. […]

Setting [2] is: saline-treated wild-type mice, L-NIL 5 mg/kg intravenously after LMBO.

Turning to `CC(=N)NCCCC[C@H](N)C(=O)O` [L-NIL], in the series with NOS2, the “increase in pulmonary cGMP levels” value was “sufficient to prevent the increase in pulmonary cGMP levels”. Besides, the “reduction of QLPA/QPA after LMBO” value in series [1] (endotoxin-challenged (10 mg/kg i.p.) wild-type mice treated with L-NIL 5 mg/kg intraperitoneally 3 hours later, studied 22 hours after endotoxin) was 53±10%. In series [1] (setting [2]), the “all other hemodynamic parameters after L-NIL injection” value is “did not change” and the “reduction of QLPA/QPA during LMBO after acute L-NIL” value came to 56±3%. Also, in series [1] (wild-type mice treated with endotoxin 22 hours earlier, L-NIL 5 mg/kg intravenously after LMBO), the “reduction of QLPA/QPA during LMBO after acute L-NIL” value is 24±18%.
